From article PMC4149842 (ChemMedChem, 2014) come the findings set out here.

Test [1] concerns the target T1, human equilibrative nucleoside transporter 1 (hENT1) (Homo sapiens, UniProt Q99808).
T1 sequence (Q99808 2-456): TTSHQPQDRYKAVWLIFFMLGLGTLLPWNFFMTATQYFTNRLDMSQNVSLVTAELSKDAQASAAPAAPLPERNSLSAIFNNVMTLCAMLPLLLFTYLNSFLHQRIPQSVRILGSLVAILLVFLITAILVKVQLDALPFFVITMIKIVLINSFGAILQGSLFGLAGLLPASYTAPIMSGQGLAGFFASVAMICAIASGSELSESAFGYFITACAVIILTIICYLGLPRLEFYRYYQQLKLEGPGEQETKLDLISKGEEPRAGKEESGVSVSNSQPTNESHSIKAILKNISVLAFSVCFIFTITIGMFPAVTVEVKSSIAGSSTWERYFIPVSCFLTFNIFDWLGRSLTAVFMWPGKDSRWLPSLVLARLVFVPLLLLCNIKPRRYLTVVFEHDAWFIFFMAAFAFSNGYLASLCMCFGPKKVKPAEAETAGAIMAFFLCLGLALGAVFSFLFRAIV
Kind of test: inhibition of initial rate of 3H-uridine. The class given is cell-based.

Test [2] addresses T1, human equilibrative nucleoside transporter 1 (hENT1). Description: inhibition of initial rate of 3H-uridine. The class given is cell-based. This is another data set of the same source.

Structures are written as SMILES. Like-named read-outs stand apart in the source and are kept apart here. Where only a bound is given, the exact number is not on record here.

On to `O=[N+]([O-])c1ccc(CNc2ncnc3c2ccn3[C@@H]2O[C@H](CO)[C@@H](O)[C@H]2O)cc1` [2b, 4-(4-Nitrobenzylamino)-7-(β-D-ribofuranosyl)pyrrolo[2,3-d]pyrimidine], for which the concentration for half-maximal inhibition (IC50) – broadly, the concentration that inhibits the measured activity by half – in test [1] was more than 1000 nM.
Consider `NC(=O)c1cn([C@@H]2O[C@H](CO)[C@@H](O)[C@H]2O)c2ncnc(NCc3ccc([N+](=O)[O-])cc3)c12` [2c, 5-Carboxamido-4-(4-nitrobenzylamino)-7-(β-D-ribofuranosyl)pyrrolo[2,3-d]pyrimidine], for which the IC50 in test [2] came out at 123 ± 31 nM.
